Marks after values point to notes of the source that are not given here.

Common to all, as to format: in vivo, mouse
Test [1] relates to des-acyl and acyl-modified ghrelin peptides in the stomach. The test is described as follows: Molecular forms of stomach ghrelin peptide after ingestion (HPLC fractionation, C-RIA). Conditions: mice; for stomach ghrelin modified by the acyl group corresponding to the ingested lipid: HPLC peak; for C6:0-ghrelin (n-hexanoyl ghrelin) concentration in the stomach / C8:0-ghrelin (n-octanoyl ghrelin) concentration in the stomach / C10:0-ghrelin (n-decanoyl ghrelin) concentration in the stomach / Des-acyl ghrelin concentration in the stomach / C10:1-ghrelin (n-decenoyl ghrelin) concentration in the stomach: 5% (w/w) in chow, 14 days, from 0.2 mg wet weight, C-RIA after HPLC, mean ± S.D.; for C10:1-ghrelin (n-decenoyl ghrelin) concentration in the stomach: fraction holds unidentified ghrelin molecules too. Here is the method:
(§1) Male C57BL/6J mice weighing 20-25 g (10-12 week old) were maintained under controlled temperature (21-23° C.) and light conditions (light on 0700-1900) with ad libitum access to food and water. Medium-chain fatty acids (MCFAs), i.e., n-hexanoic, n-octanoic, and n-lauric acids (Sigma-Aldrich Japan Co., Ltd., Tokyo), were dissolved in water at 5 mg/ml. n-Palmitic acid, a common long-chain fatty acid (LCFA) (Sigma-Aldrich Japan Co., Ltd., Tokyo), was mixed into standard laboratory chow (CLEA Rodent Diet CE-2, CLEA Japan, Osaka) at a concentration of 1% (w/w), to equilibrate the total intake amount of this lipid to the other medium-chain fatty acids contained in the food. Medium- and long-chain triglycerides (MCTs and LCTs), i.e., glyceryl trihexanoate, trioctanoate, tridecanoate and tripalmitates (Wako Pure Chemical, Osaka, Japan), were mixed with standard laboratory chow at a concentration of 5% (w/w). Whole stomach tissues from treated mice were collected at the indicated times (0-14 days) after ingesting the free fatty acid- or triacylglyceride-containing food. Fresh tissue samples from these mice were diced and boiled for 5 minutes in a 10-fold volume of water. The tissue-containing solution was then adjusted to 1M acetic acid after cooling and then homogenized with a Polytron mixer. The supernatant, obtained after centrifugation at 15,000 rpm for 15 minutes, was then lyophilized. The lyophilized material was dissolved in RIA buffer and subjected to ghrelin C- and N-RIA. To elucidate the forms of ghrelin peptides modified by different acyl groups, extracted stomach peptides were collected using a Sep-Pak Plus C18 cartridge (Waters, Milford, Mass.) and subjected to C18 RP-HPLC (Symmetry 300, 3.9×150 mm, Waters) with a linear gradient from 10 to 60% CH3CN/0.1% TFA at a flow rate of 1.0 ml/minute for 40 minutes. Five hundred micro-litter fractions were collected. Ghrelin peptide content in each fraction was measured by ghrelin C- and N-RIA as described above. Degradation of ghrelin was not observed during the extraction.
To clarify what molecular forms of ghrelin peptide are present after the ingestion of triacylglycerol (triacylglycerin), peptide extracts from stomachs of mouse fed chow containing glyceryl trihexanoate (C6:0-MCT), glyceryl trioctanoate (C8:0-MCT), glyceryl tridecanoate (C10:0-MCT), and standard laboratory chow (Control) were fractionated by HPLC, and measured for ghrelin immunoreactivity by C-RIA. […] Based on the observed retention times of synthetic acyl-modified ghrelin peptides, peaks a, d, h, and k corresponded to des-acyl ghrelin, peaks b, f, i, and 1 corresponded to n-octanoyl (C8:0) ghrelin, and peaks c, g, j, and m corresponded to n-decenoyl (10:1) ghrelin.
Male C57BL/6J mice were fed chow mixed with 5% (w/w) glyceryl trihexanoate (C6:0-MCT), glyceryl trioctanoate (C8:0-MCT), or glyceryl tri-decanoate (C10:0-MCT) for 14 days. The concentrations of des-acyl ghrelin, n-hexanoyl ghrelin (C6:0-ghrelin), n-octanoyl ghrelin (C8:0-ghrelin), n-decenoyl ghrelin (C10:1-ghrelin), and n-decanoyl ghrelin (C10:0-ghrelin) from stomach samples (from 0.2 mg wet weight) were measured by ghrelin C-RIA after HPLC fractionation.

The subject of test [2] is acyl-modified and total ghrelin in the stomach. Kind of test: Stomach ghrelin content after medium- to long-chain triacylglycerol ingestion (N-RIA / C-RIA). Conditions: mice, 5% (w/w) in chow, two weeks; for production of acyl-modified ghrelin in stomach tissue: N-RIA. The procedure: (§2) RIAs specific for ghrelin were performed as previously described [D2]. Two polyclonal antibodies were raised in rabbits against the N-terminal (Gly^1-Lys^11 with O-n-octanoylation at Ser^3) and C-terminal (Gln^13-Arg^28) fragments of rat ghrelin. RIA incubation mixtures were composed of 100 μl of either standard ghrelin or an unknown sample, with 200 μl of antiserum diluted in RIA buffer (50 mM sodium phosphate buffer (pH 7.4), 0.5% BSA, 0.5% Triton-X100, 80 mM sodium chloride (NaCl), 25 mM disodium ethylenediamine-tetraacetate (EDTA 2-Na) and 0.05% sodium azide (NaN3)) containing 0.5% normal rabbit serum. Anti-rat ghrelin [D1-D11] and anti-rat ghrelin [D13-D28] antisera were used at final dilutions of 1/3,000,000 and 1/20,000, respectively. After a 12-hour incubation at 4° C., 100 μl of ^125I-labeled ligand (20,000 cpm) was added for an additional 36-hour incubation. Then, 100 μl of anti-rabbit goat antibody was added. After incubation for 24 hours at 4° C., free and bound tracers were separated by centrifugation at 3,000 rpm for 30 min. Pellet radioactivity was quantified in a gamma counter (ARC-600, Aloka, Tokyo). All assays were performed in duplicate at 4° C.
as §1
Orally ingested triacylglycerols are intraluminally hydrolyzed and absorbed through the gastro-intestinal mucosa as free fatty acids or monoglycerides. Thus, ingested triacylglycerols may serve as a source of free fatty acids [D26]. To examine if ingested triacylglycerols are used for acyl-modification of ghrelin, mice were fed chow mixed with 5% (w/w) glyceryl trihexanoate (C6), trioctanoate (C8), tridecanoate (C10), and tripalmintate (C16). After two weeks, gastric peptides were extracted. Ghrelin concentration in the stomach of these mice and in that from mice fed standard laboratory chow (Control) (n=8) are shown. The content of acyl-modified and total ghrelins was measured by N- and C-RIA. […]

Test [3] shares this test system. Kind of test: Stomach ghrelin content after free fatty acid ingestion (N-RIA / C-RIA). The settings on record: mice, 14 days; for total ghrelin concentration in the stomach vs control: C-RIA. Here is the method: as §2
Stomachs collected from either mice or rats were washed two times in phosphate buffered physiological saline (pH 7.4). After measuring the wet weight of each sample, the whole stomach tissue was diced and boiled for 5 minutes in a 10-fold volume of water to inactivate intrinsic proteases. After cooling on ice, boiled samples were adjusted to 1 M acetic acid-20 mM hydrochloric acid (HCl). Peptides were extracted following homogenization with a Polytron mixer (PT 6100, Kinematica AG, Littan-Luzern, Switzerland). Extract supernatants, isolated following 15-minute-centrifugation at 15,000 rpm (12,000×g), were lyophilized and stored at −80° C. The lyophilized samples were redissolved in either RIA buffer or calcium mobilization assay buffer prior to ghrelin RIA or calcium mobilization assay, respectively.
as §1, with “Degradation of ghrelin was not observed during the extraction.” left out

Consider `CCCC(=O)OCC(COC(=O)CCC)OC(=O)CCC` [glyceryl tributyrate], for which the “stomach ghrelin modified by the acyl group corresponding to the ingested lipid” value (from here on “stomach ghrelin modified”) in test [1] (C-RIA) is given as “not observed”.
With `CCCCCCCCCCCCC(=O)OCC(O)CO` (stereo not shown) [glyceryl tridecanoate], in test [2], the “molar ratio of acyl-modified ghrelin/total ghrelin” value was “increased” and the “production of acyl-modified ghrelin in stomach tissue” value (from here on “production of acyl-modified ghrelin”) is reported as “no effect”. In test [1], the “C6:0-ghrelin (n-hexanoyl ghrelin) concentration in the stomach” value was 22.1 ± 6.1, the “C8:0-ghrelin (n-octanoyl ghrelin) concentration in the stomach” value is given as 460.0 ± 70.6, the “C10:0-ghrelin (n-decanoyl ghrelin) concentration in the stomach” value is 95.1 ± 9.7^a) and the “Des-acyl ghrelin concentration in the stomach” value is on record as 181.4 ± 31.5^c). Moreover, in test [1], the “C10:1-ghrelin (n-decenoyl ghrelin) concentration in the stomach” value was 64.5 ± 14.2^b). Moreover, in test [1] (C-RIA), the “stomach ghrelin modified” value is on record as “increased”.
Take `CCCCCC(=O)OCC(COC(=O)CCCCC)OC(=O)CCCCC` [glyceryl trihexanoate]: in test [2], the “molar ratio of acyl-modified ghrelin/total ghrelin” value is “decreased significantly” and the “production of acyl-modified ghrelin” value was “slightly suppressed”. Moreover, in test [1], the “C6:0-ghrelin (n-hexanoyl ghrelin) concentration in the stomach” value is listed as 237.3 ± 35.0^a), the “C8:0-ghrelin (n-octanoyl ghrelin) concentration in the stomach” value was 358.0 ± 33.0^b), the “C10:0-ghrelin (n-decanoyl ghrelin) concentration in the stomach” value worked out at 14.1 ± 5.2 and the “Des-acyl ghrelin concentration in the stomach” value was 245.0 ± 11.0. The “C10:1-ghrelin (n-decenoyl ghrelin) concentration in the stomach” value in test [1] is 133.5 ± 12.1^b). Besides, the “n-octanoyl ghrelin concentration in the stomach vs control” value in test [1] (HPLC peak f, C-RIA) is “significant decreases”. Besides, in test [1] (C-RIA), the “stomach ghrelin modified” value is recorded as “increased drastically”.
Take `CCCCCCCCCCCCCCCC(=O)OCC(COC(=O)CCCCCCCCCCCCCCC)OC(=O)CCCCCCCCCCCCCCC` [glyceryl tripalmitate]: the “production of acyl-modified ghrelin” value in test [2] is “no effect”. For the same compound, the “stomach ghrelin modified” value in test [1] (C-RIA) was “not observed”.
With `CCCCCCCCCC(=O)O` [n-decanoic acid], in test [1] (C-RIA), the “stomach ghrelin modified” value is “increased”. Further, in test [3], the “total ghrelin concentration in the stomach vs control” value was “No significant changes”. For the same compound, the “gastric concentration of acyl-modified ghrelin vs control” value (“gastric concentration … vs control” below) in test [3] (N-RIA) was “No significant changes”.
In the case of `CCCCCC(=O)O` [n-hexanoic acid], the “stomach ghrelin modified” value in test [1] (C-RIA) was “increased”. Besides, in test [3], the “total ghrelin concentration in the stomach vs control” value is “No significant changes”. Moreover, the “gastric concentration … vs control” value in test [3] (N-RIA) was “No significant changes”.
In the case of `CCCCCCCC(=O)O` [n-octanoic acid], the “stomach ghrelin modified” value in test [1] (C-RIA) was “increased”. Further, in test [3], the “ratio of n-octanoyl ghrelin/total ghrelin” value was “increased” and the “total ghrelin concentration in the stomach vs control” value is “No significant changes”. Also, in test [3] (N-RIA), the “gastric concentration … vs control” value is recorded as “increased significantly”. For the same compound, the “mean concentration of acyl-modified ghrelin in the stomach” value in test [3] (N-RIA, n=8, control 1,795) is 2,455 fmol/mg wet weight.
Regarding `CCCCCCCCCCCC(=O)OCC(COC(=O)CCCCCCCCCCC)OC(=O)CCCCCCCCCCC` [trilaurate], the “stomach ghrelin modified” value in test [1] (C-RIA) is recorded as “not observed”.
In the case of n-palmitic acid, the “total ghrelin concentration in the stomach vs control” value in test [3] is listed as “No significant changes”. The “gastric concentration … vs control” value in test [3] (N-RIA) is “No significant changes”.

These data come from patent US20080293818A1, “Regulator of Physiological Function of Ghrelin and Use Thereof” (priority 2004, published 2008).
